Measurements from patent publication US20090202574A1, “METHODS OF IMMUNE OR HAEMATOLOGICAL ENHANCEMENT, INHIBITING TUMOUR FORMATION OR GROWTH, AND TREATING OR PREVENTING CANCER” (priority 2004, published 2009).

Tests used:
EL-4 target cells = assay: Anti-tumour CTL and/or NK cell cytolytic activity of splenocytes against EL-4 target cells; details: Example 18; mice fed control diet
Method: Splenocytes were harvested 28 days following tumour cell injection, as specified. They were incubated at 37° C. with EL-4 target cells in graded E:T ratios in 96-well round-bottom plates. After a 4-hour incubation, 50 μl of supernatant was collected, and lysis was measured using the Cyto Tox 96 Assay Kit (Promega, Madison, Wis., USA). Background controls for non-specific target and effector cell lysis were included. After background subtraction, percentage of cell lysis was calculated using the formula: 100× (experimental-spontaneous effector-spontaneous target/maximum target-spontaneous target).

[1] = system: Lewis lung carcinoma (LLC) tumours; assay: Lewis lung carcinoma tumour growth in mice; format: in vivo, C57BL/6 mice; details: Example 18; 28 g Fe-Lf per 2.4 Kg diet; epirubucin 15 mg/Kg i.p.
Method: Tumors were established by s.c. injection of 2×10^5 EL-4 cells into the left flank of mice, and growth determined by measuring two perpendicular diameters. Animals were euthanased when tumors reached more than 1.0 cm in diameter, in accord with Animal Ethics Approval (University of Auckland). All experiments included 5 mice per treatment group, unless otherwise indicated. Paclitaxel (30 mg dissolved in 5 ml of Cremophor® EL and dehydrated alcohol) was diluted in 0.9% NaCl and administered i.p. at 30 mg/Kg. Doxorubucin in water was injected i.p. at 15 mg/Kg. The drugs were injected in a volume of 0.01 to 0.02 ml/g body weight. The expression vector encoding mouse B7-1 was prepared by cesium chloride gradient centrifugation, and diluted to 5 μg/μl in a solution of 5% glucose in 0.01% Triton X-100. It was mixed in a ratio of 1:1 (wt:wt) with DOTAP cationic liposomes (Boehringer Mannheim, Germany). Tumors were injected with 180 μl of DNA (180 μg)/liposome complexes, as described previously (Kanwar, et al., 1999 and Kanwar, et al., 2000).
Mice were fed the control diet, and the same diet supplemented with 28 g of 100% Fe-saturated lactoferrin per 2.4 Kg of diet. EL-4 (2×10^5), Lewis lung carcinoma (LLC, 2×10^5), and B16 melanoma (2×10^5) tumour cells were injected into the left flanks of C57BL/6 mice following two weeks on the Lf diets, or control diet. […]

EL-4 tumours = assay: EL-4 tumour growth in mice (s.c. flank tumour model); format: in vivo, C57BL/6 mice; details: for EL-4 tumour response: Example 18, 28 g Fe-Lf per 2.4 Kg diet, drugs i.p. at ~0.4 to 0.5 cm
IL-18 = IL-18 production by cultured intestinal loops; format: cell-based, mice; details: Example 20; 400 and 800 μg/ml; 48 h
Method: Cytokine levels in the supernatants of homogenates of the small intestine were determined using a “sandwich” ELISA kit (Endogen, Woburn, Mass.). They were detected within standard curve ranges of 15-375 pg/ml for IL-4, 0-2450 pg/ml for IL-5, 15-1000 pg/ml for TNF-α, 0-3000 pg/ml for IFN-γ, 37-3000 pg/ml for IL-10, 31.3-2000 pg/ml for IL-12, and 31.3-2000 pg/ml for IL-18, respectively. Quantification of nitrite, indicative of NO production, was carried out by the Griess reaction (Sigma, USA). The results are expressed as the mean nitrite concentration (μM)±SD.
100% Fe-saturated Lf, natural Lf (less than 20% iron saturated), and bovine serum albumin control were added at 400 and 800 μg/ml to intestinal loops (2.5 cm segments of the small intestine) prepared from healthy 6 to 7 week-old female mice, which were kept in culture for 48 h. IL-18 levels released by the intestinal loops, and present in the supernatants of homogenates of the small intestine were determined using a “sandwich” ELISA kit as described above.

COc1cccc2c1C(=O)c1c(O)c3c(c(O)c1C2=O)C[C@@](O)(C(=O)CO)C[C@@H]3O[C@H]1C[C@H](N)[C@@H](O)[C@H](C)O1 [Epirubucin, reference compound]
effect of drug alone on anti-tumour cytolytic activity (EL-4 target cells): negligible effect | LLC tumour response [1]: slight delay in the growth | EL-4 tumour response (EL-4 tumours): slight delay in the growth

CC(=O)O[C@H]1C(=O)[C@@]2(C)[C@H]([C@H](OC(=O)c3ccccc3)[C@]3(O)C[C@H](OC(=O)[C@H](O)[C@@H](NC(=O)c4ccccc4)c4ccccc4)C(C)=C1C3(C)C)[C@]1(OC(C)=O)CO[C@@H]1C[C@@H]2O [paclitaxel, reference compound]
tumour response (EL-4 tumours; Example 5, paclitaxel 30 mg/Kg i.p. at 0.5 cm tumour diameter): grew completely unchecked | tumour response to paclitaxel (EL-4 tumours; Example 15, paclitaxel 30 mg/Kg i.p. at ~0.6 cm, 20 g Lf per 2.4 Kg diet): completely resistant

O=c1[nH]cc(F)c(=O)[nH]1 [fluorouracil, reference compound]
effect of drug alone on anti-tumour cytolytic activity (EL-4 target cells): only slightly enhanced

O=P1(N(CCCl)CCCl)NCCCO1 (stereo not drawn) [cyclophosphamide, reference compound]
effect of drug alone on anti-tumour cytolytic activity (EL-4 target cells): small increases | EL-4 tumour response (EL-4 tumours): little effect

bovine serum albumin: control protein in intestinal loop test [reference compound]
effect on the levels of IL-18 already detectable in the intestine (IL-18): negligible effect

COc1cccc2c1C(=O)c1c(O)c3c(c(O)c1C2=O)C[C@@](O)(C(=O)CO)C[C@@H]3O[C@H]1C[C@H](N)[C@H](O)[C@H](C)O1 [doxorubicin, reference compound]
tumour response (EL-4 tumours; Example 6, doxorubicin 15 mg/Kg and/or paclitaxel 30 mg/Kg single dose i.p. at ~0.55 cm): regressed to half their size within one week of administration of doxorubicin, but then began to grow again

CN(Cc1cnc2nc(N)nc(N)c2n1)c1ccc(C(=O)N[C@@H](CCC(=O)O)C(=O)O)cc1 [methotrexate, reference compound]
effect of drug alone on anti-tumour cytolytic activity (EL-4 target cells): small increases | EL-4 tumour response (EL-4 tumours): no discernible effect
